According to US20240140949A1, “ANTI-CANCER PHARMACEUTICAL COMPOSITION FOR TARGETING HEAT SHOCK PROTEIN 70, CONTAINING INDOLOQUINAZOLIDINE ALKALOID” (SEOUL NATIONAL UNIVERSITY R & DB FOUNDATION, priority 2021, published 2024):

Assays:
[1] = tested on: H1299 lung cancer cells; experiment: Cell viability (MTT assay) in H1299 cells; type: cell-based, human; conditions: 0.5-10 μM, 3 days, MTT (FIG. 9-12)
Source text: (§1) Human lung cancer cell lines (H1299, H460, A549, H226B, and PC9), breast cancer cell line (MDA-MB-231), liver cancer cell line (Hep3B), kidney cancer cell line (786-0), prostate cancer cell lines (DU145 and PC-3), and mouse lung cancer cell line (Lewis Lung Carcinoma, LLC) were purchased from ATCC (American Type Culture Collection) or obtained from Dr. John V. Heymach of MD Anderson Cancer Center, USA. The human head and neck cancer cell line (UMSCC38) was obtained from Dr. Jeffrey N. Myers (MD Anderson Cancer Center, USA). Human colon cancer cell lines (HCT116 and HT-29) and glioblastoma cell line (U87MG) were obtained from Professor Sang Kook Lee (Seoul National University College of Pharmacy). The human kidney cancer cell line (Caki-1), and gastric cancer cell line (SNU-638) were purchased from the Korean Cell Line Bank. The chemotherapy-resistant cells [paclitaxel-resistant H460 cells (H460/PcR), paclitaxel-resistant H226B cells (H226B/PcR), cisplatin-resistant H1299 cells (H1299/CsR), pemetrexed-resistant H1299 cells (H1299/PmR)] and molecularly targeted anticancer therapy-resistant cells [erlotinib-resistant PC9 cells (PC9/ER)] were constructed by treating the respective anti-cancer drugs for more than three months. H1299, H460, H226B, PC9, Hep3B, 786-0, DU145, PC-3, HCT116, HT-29, SNU-638, chemotherapeutic resistant cells, and molecularly targeted anticancer therapy-resistant cells were cultured in RPMI 1640 media containing 10% fetal bovine serum (FBS) and antibiotics at 37° C. under 5% CO2 conditions, while MDA-MB-231, UMSCC38, U87MG, Caki-1 were cultured in DMEM media containing 10% FBS and antibiotics at 37° C. under 5% CO2 conditions. Cells were passaged 1-2 times per week.
(§2) The cancer cell lines were seeded in a 96-well plate at a density of 2×10^3 cells per well and cultured for 24 hours to allow the cells to attach. The cells were then treated with diluted drugs in media for 3 days and cell viability was assessed using MTT assay or crystal violet (CB) assay. For the MTT assay, MTT solution dissolved in PBS was added to achieve a final concentration of 500 μg/mL and incubated for 2-4 hours, after which the medium was removed and the formed formazan was dissolved in 100% DMSO, followed by measuring the absorbance at 570 nm. For the CB assay, the cultured cells were fixed with 100% methanol, stained with a 0.025% crystal violet solution, dissolved in 1% SDS solution, and the absorbance was measured at 570 nm. Cell viability was calculated as the percentage of absorbance change in drug-treated group compared to vehicle (DMSO) treated control group.

[2] = tested on: various lung cancer cells and chemotherapeutic drug-resistant lung cancer cell lines; experiment: Anchorage-dependent colony formation in lung cancer and drug-resistant lung cancer cell lines; type: cell-based, human; conditions: 0.5 μM (FIG. 14, 16)
Source text: Human lung cancer cell lines (H1299, H460, A549, H226B, and PC9), breast cancer cell line (MDA-MB-231), liver cancer cell line (Hep3B), kidney cancer cell line (786-0), prostate cancer cell lines (DU145 and PC-3), and mouse lung cancer cell line (Lewis Lung Carcinoma, LLC) were purchased from ATCC (American Type Culture Collection) or obtained from Dr. John V. Heymach of MD Anderson Cancer Center, USA. The human head and neck cancer cell line (UMSCC38) was obtained from Dr. Jeffrey N. Myers (MD Anderson Cancer Center, USA). Human colon cancer cell lines (HCT116 and HT-29) and glioblastoma cell line (U87MG) were obtained from Professor Sang Kook Lee (Seoul National University College of Pharmacy). The human kidney cancer cell line (Caki-1), and gastric cancer cell line (SNU-638) were purchased from the Korean Cell Line Bank. […]
Cancer cell lines were seeded in a 24-well or 6-well plate at 100-250 cells per well and allowed to attach, followed by treatment with drugs diluted in media and cultured for 2-3 weeks. Formed colonies were stained with crystal violet and counted. The drug's colony formation inhibitory effect was calculated as the percentage of colony number change in the drug-treated group compared to the vehicle (DMSO)-treated control group.

[3] = tested on: various lung cancer cell lines and chemotherapeutic agent-resistant lung cancer cell lines; experiment: Cell viability in lung cancer and chemotherapeutic drug-resistant lung cancer cell lines; type: cell-based, human; conditions: lung cancer and chemotherapeutic agent-resistant lung cancer cell lines (FIG. 13, 15)
Source text: Human lung cancer cell lines (H1299, H460, A549, H226B, and PC9), breast cancer cell line (MDA-MB-231), liver cancer cell line (Hep3B), kidney cancer cell line (786-0), prostate cancer cell lines (DU145 and PC-3), and mouse lung cancer cell line (Lewis Lung Carcinoma, LLC) were purchased from ATCC (American Type Culture Collection) or obtained from Dr. John V. Heymach of MD Anderson Cancer Center, USA. The human head and neck cancer cell line (UMSCC38) was obtained from Dr. Jeffrey N. Myers (MD Anderson Cancer Center, USA). […]
as §2, with “Cell viability was calculated as the percentage of absorbance change in drug-treated group compared to vehicle (DMSO) treated control group.” left out

[4] = tested on: Hsp70 protein and Hsp70/Hsp90 client proteins (Akt, Src, and MEK); experiment: Western blot of Hsp70 and client proteins in lung cancer cells; type: cell-based, human; conditions: for expression of Hsp70 protein and Hsp70/Hsp90 client proteins (Akt, Src, and MEK): H1299 cells, up to 250 nM, 2 days (FIG. 17)
Source text: as §1
The cells treated with the drug were treated with RIPA lysis buffer [50 mM Tris-HCl (pH 7.4), 150 mM NaCl, 1 mM EDTA, 0.25% sodium deoxycholate, 1% Triton X-100, 100 mM NaF, 5 mM Na3VO4, 1 mM PMSF, 1 μg/mL aprotinin, 1 μg/mL leupeptin, and 1 μg/mL pepstatin], followed by incubation on ice for 10 minutes and centrifugation at 13,000 rpm for 15 minutes to extract proteins. The proteins were quantified by BCA assay and equal amounts of proteins were separated by 8-10% SDS-PAGE. The separated proteins were transferred to a PVDF membrane, and the areas of the membrane not transferred with protein were blocked by incubating the membrane in 5% skim milk solution or 3% BSA solution diluted in TBST at room temperature for 1 hour. The membrane was then incubated in a primary antibody solution diluted 1:1,000 in 3% BSA at 4° C. for more than 12 hours. The primary antibody used was either anti-Hsp70 or anti-actin, with the anti-Hsp70 antibody obtained from Enzo Life Science and the actin antibody obtained from Santa Cruz Biotechnology. After incubation, the membrane was washed for 1 hour while changing TBST several times, and then incubated for 1 hour at room temperature with a secondary antibody (GeneTex) diluted 1:5,000 in 5% skim milk solution. After incubation, the membrane was washed for 1 hour while changing TBST several times, and then treated with an enhanced chemiluminescence (ECL) solution. The expression of Hsp70 or Actin protein was detected using LAS4000.

[5] = tested on: cancer cell; experiment: Cancer cell survival inhibitory activity (crystal violet assay); type: cell-based; conditions: crystal violet assay (FIG. 19)
Method: as §2

[6] = tested on: lung cancer cells; experiment: Anchorage-independent (soft agar) colony formation; type: cell-based; conditions: soft agar (FIG. 20)
Method: Before the experiment, a 1% agar solution made with low-melting agar was placed in a 24-well plate and hardened at room temperature to create a bottom agar. The cells were diluted with medium to seed 2×10^3 cells per well in a 24-well plate. Then, it was mixed with a 1% agar solution to create a final 0.4% agar solution, which was then solidified at room temperature in the plate containing the bottom agar. Medium containing the drug was added on top of the cells mixed in the agar and cultured for 1-3 weeks at 37° C. in a 5% CO2 condition, after which the formed colonies were stained with an MTT solution of 250-500 μg/mL and counted. The colony formation inhibitory effect of the drug was calculated by expressing the change in colony numbers in the drug-treated group compared to the vehicle (DMSO) treated control group as a percentage.

[7] = tested on: lung cancer cell; experiment: Cancer cell survival inhibitory activity (MTT assay) of EV501 to EV509; type: cell-based; conditions: 0.5 μM (lowest concentration), MTT assay (FIG. 18)
Method: as §2

C#CCN1c2ccccc2C(=O)N2CCc3c([nH]c4ccccc34)C21 (stereo not drawn) [EV205, 14N-propagyl Evodiamine]
lung cancer cell death (cell viability) [1]: excellent effects

C=CCN1c2ccccc2C(=O)N2CCc3c([nH]c4ccccc34)C21 (stereo not drawn) [EV206, 14N-Allyl Evodiamine]
formation of colonies under anchorage-dependent (adherent) conditions [2]: significantly inhibited | lung cancer cell death (cell viability) [1]: excellent effects | growth-inhibitory effect [3]: excellent growth-inhibitory effects | expression of Hsp70 protein and Hsp70/Hsp90 client proteins (Akt, Src, and MEK) [4]: clear reduction

CC(C)=CCN1c2ccccc2C(=O)N2CCc3c([nH]c4ccccc34)C21 (stereo not drawn) [EV217]
lung cancer cell death (cell viability) [1]: excellent effects

C=C(C)CN1c2ccccc2C(=O)N2CCc3c([nH]c4ccccc34)C21 (stereo not drawn) [EV218, 14N-(2-methyl)allyl evodiamine]
lung cancer cell death (cell viability) [1]: excellent effects

CC#CCN1c2ccccc2C(=O)N2CCc3c([nH]c4ccccc34)C21 (stereo not drawn) [EV219]
lung cancer cell death (cell viability) [1]: excellent effects

CN1c2ccc(F)cc2C(=O)N2CCc3c([nH]c4ccccc34)C21 (stereo not drawn) [EV301]
lung cancer cell death (cell viability) [1]: excellent effects

COc1ccc2c(c1)C(=O)N1CCc3c([nH]c4ccccc34)C1N2C (stereo not drawn) [EV302]
lung cancer cell death (cell viability) [1]: excellent effects

CN1c2ccc([N+](=O)[O-])cc2C(=O)N2CCc3c([nH]c4ccccc34)C21 (stereo not drawn) [EV303]
lung cancer cell death (cell viability) [1]: excellent effects

CN1c2ccc(Cl)cc2C(=O)N2CCc3c([nH]c4ccccc34)C21 (stereo not drawn) [EV304]
lung cancer cell death (cell viability) [1]: excellent effects

CN1c2ccc(Br)cc2C(=O)N2CCc3c([nH]c4ccccc34)C21 (stereo not drawn) [EV306]
lung cancer cell death (cell viability) [1]: excellent effects

Cc1ccc2c(c1)C(=O)N1CCc3c([nH]c4ccccc34)C1N2C (stereo not drawn) [EV307]
lung cancer cell death (cell viability) [1]: excellent effects

CN1c2cccc(Cl)c2C(=O)N2CCc3c([nH]c4ccccc34)C21 (stereo not drawn) [EV308]
lung cancer cell death (cell viability) [1]: excellent effects

COc1cccc2c1C(=O)N1CCc3c([nH]c4ccccc34)C1N2C (stereo not drawn) [EV309]
lung cancer cell death (cell viability) [1]: excellent effects

CN1c2ccc(I)cc2C(=O)N2CCc3c([nH]c4ccccc34)C21 (stereo not drawn) [EV310]
lung cancer cell death (cell viability) [1]: excellent effects

CN1c2ccccc2C(=O)N2CCc3c([nH]c4ccc([N+](=O)[O-])cc34)C21 (stereo not drawn) [EV401]
lung cancer cell death (cell viability) [1]: excellent effects

CN1c2ccccc2C(=O)N2CCc3c([nH]c4c([N+](=O)[O-])cc([N+](=O)[O-])cc34)C21 (stereo not drawn) [EV402]
lung cancer cell death (cell viability) [1]: excellent effects

COc1ccc2[nH]c3c(c2c1)CCN1C(=O)c2ccccc2N(C)C31 (stereo not drawn) [EV403]
lung cancer cell death (cell viability) [1]: excellent effects

Cc1ccc2[nH]c3c(c2c1)CCN1C(=O)c2ccccc2N(C)C31 (stereo not drawn) [EV406]
lung cancer cell death (cell viability) [1]: excellent effects

CN1c2ccccc2C(=O)N2CCc3c([nH]c4ccc(Cl)cc34)C21 (stereo not drawn) [EV407]
lung cancer cell death (cell viability) [1]: excellent effects

CN1c2ccccc2C(=O)N2CCc3c([nH]c4ccc(O)cc34)C21 (stereo not drawn) [EV408]
formation of colonies under anchorage-dependent (adherent) conditions [2]: significantly inhibited | lung cancer cell death (cell viability) [1]: excellent effects | growth-inhibitory effect [3]: excellent growth-inhibitory effects | expression of Hsp70 protein and Hsp70/Hsp90 client proteins (Akt, Src, and MEK) [4]: clear reduction

CCCOc1ccc2[nH]c3c(c2c1)CCN1C(=O)c2ccccc2N(C)C31 (stereo not drawn) [EV413]
lung cancer cell death (cell viability) [1]: excellent effects

C=CCN1c2ccccc2C(=O)N2CCc3c([nH]c4ccc([N+](=O)[O-])cc34)C21 (stereo not drawn) [EV501]
melting point: 186 to 188 °C | cancer cell survival inhibitory activity [5]: as excellent as EV507 | anchorage-independent colony formation [6]: effectively inhibited | inhibition at 0.5 µM [7]: > 65% | expression of Hsp70 and Src and Akt (client proteins of Hsp70/Hsp90) ([4]; Western blot (FIG. 21)): decrease

C=C(C)CN1c2ccccc2C(=O)N2CCc3c([nH]c4ccc([N+](=O)[O-])cc34)C21 (stereo not drawn) [EV502]
melting point: 261 to 262 °C | inhibition at 0.5 µM [7]: > 50%

C=CCN1c2ccccc2C(=O)N2CCc3c([nH]c4c([N+](=O)[O-])cc([N+](=O)[O-])cc34)C21 (stereo not drawn) [EV503]
melting point: 229 to 231 °C | inhibition at 0.5 µM [7]: > 50%

C=C(C)CN1c2ccccc2C(=O)N2CCc3c([nH]c4c([N+](=O)[O-])cc([N+](=O)[O-])cc34)C21 (stereo not drawn) [EV504]
melting point: 175 to 177 °C | cancer cell survival inhibitory activity [5]: as excellent as EV507

C#CCN1c2ccccc2C(=O)N2CCc3c([nH]c4c([N+](=O)[O-])cc([N+](=O)[O-])cc34)C21 (stereo not drawn) [EV506]
melting point: 232 to 234 °C | inhibition at 0.5 µM [7]: > 50%

C#CCN1c2ccccc2C(=O)N2CCc3c([nH]c4ccc(O)cc34)C21 (stereo not drawn) [EV508]
melting point: 230 to 232 °C | cancer cell survival inhibitory activity [5]: as excellent as EV507 | anchorage-independent colony formation [6]: effectively inhibited | inhibition at 0.5 µM [7]: > 65%

C=C(C)CN1c2ccccc2C(=O)N2CCc3c([nH]c4ccc(O)cc34)C21 (stereo not drawn) [EV509]
melting point: 211 to 213 °C | cancer cell survival inhibitory activity [5]: as excellent as EV507 | anchorage-independent colony formation [6]: effectively inhibited | inhibition at 0.5 µM [7]: > 65%
